Assay results as given in publication PMC10478957 (Biochemistry, 2023).

Experiments:
BtNosP [1] = target: BtNosP (Burkholderia thailandensis, UniProt Q2T7C0); experiment: biochemical; assay type: binding
BtNosP [2] = target: T1, BtNosP (Burkholderia thailandensis, UniProt Q2T7C0); assay type: binding
T1 sequence (Q2T7C0 1-386): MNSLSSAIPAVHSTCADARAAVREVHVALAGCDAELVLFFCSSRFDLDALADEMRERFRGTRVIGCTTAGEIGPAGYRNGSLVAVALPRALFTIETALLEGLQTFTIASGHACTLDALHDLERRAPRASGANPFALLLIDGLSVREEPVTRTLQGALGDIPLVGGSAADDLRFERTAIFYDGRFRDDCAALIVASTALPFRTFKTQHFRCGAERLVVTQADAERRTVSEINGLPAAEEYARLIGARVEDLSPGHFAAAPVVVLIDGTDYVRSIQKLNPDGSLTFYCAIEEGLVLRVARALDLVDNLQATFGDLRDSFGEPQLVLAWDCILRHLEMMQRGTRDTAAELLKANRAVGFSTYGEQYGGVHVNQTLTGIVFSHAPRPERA

| Compound | Kd (BtNosP [1]) | UV-vis spectroscopy of Fe(II)-NO complex; CO/dithionite trap NO dissociation rat (BtNosP [2]) |
| --- | --- | --- |
| C=CC1=C(C)C2=Cc3c(C=C)c(C)c4[n]3[Fe]([Cl])[n]3c(c(C)c(CCC(=O)O)c3=CC3=NC(=C4)C(C)=C3CCC(=O)O)=CC1=N2 [hemin] | 530 ± 120 nM | – |
| [N]=O [nitric oxide] | – | (1.73 ± 0.6) × 10^−4 s^−1 |
